Measured values taken from patent US20260216174A1, “TREATMENT OF ER+ BREAST CANCER COMPRISING HOMOLOGOUS RECOMBINATION DEFICIENCY USING PARG INHIBITOR” (IDEAYA BIOSCIENCES, INC., priority 2023, published 2026).

Tests used:
HCC1428 tumors = assay: Cell line derived xenograft (CDX) study with HCC1428 tumors; assay type: in vivo, BALB/c nude mice
Experimental: For this xenograft, supplemental estradiol benzoate injections (40 μg/20 μl/mouse) are administered subcutaneously twice a week to BALB/c nude mice, starting one week prior to cell implantation and continuing through to the end of study. After implantation, HCC1428 tumor were allocated to treatment arms once a median tumor volume of about 181 mm^3 was reached. In Table 3A the abbreviation “p.o.” refers to oral administration and the abbreviation “QD×28” refers to administration once a day for 28 days.
Tumors were measured and mice were weighed twice a week during the experimental period. The tumor volume (mm3) was estimated using the formula: TV=a×b2/2, where “a” and “b” were the long and the short diameter of a tumor, respectively. The Tumor volumes were used to calculate tumor growth inhibition (TGI, an indicator of antitumor activity) using the formula: TGI %: (1−{T/T0/Ct/C0}/1−{C0/Ct})×100 where Tt=median tumor volume of treated at time t, T0=median tumor volume of treated at time 0, Ct=median tumor volume of control at time t and C0=median tumor volume of control at time 0.
For this xenograft, supplemental estradiol benzoate injections (40 μg/20 μl/mouse) are administered subcutaneously twice a week to BALB/c nude mice, starting one week prior to cell implantation and continuing through to the end of study. After implantation, HCC1428 tumor were allocated to treatment arms once a median tumor volume of about 181 mm^3 was reached. In Table 4A the abbreviation “p.o.” refers to oral administration and the abbreviation “QD×28” refers to administration once a day for 28 days.
Tumors were measured and mice were weighed twice a week during the experimental period. The tumor volume (mm^3) was estimated using the formula: TV=a×b2/2, where “a” and “b” were the long and the short diameter of a tumor, respectively. The Tumor volumes were used to calculate tumor growth inhibition (TGI, an indicator of antitumor activity) using the formula: TGI %: (1−{T/T0/Ct/C0}/1−{C0/Ct})×100 where Tt=median tumor volume of treated at time t, T0=median tumor volume of treated at time 0, Ct=median tumor volume of control at time t and C0=median tumor volume of control at time 0. […] At 100 mg/kg QD the mean tumor volume achieved was 116 mm3, on Day 71. The tumor growth inhibition (TGI) of these treatments compared with vehicle group on Day 28 or 71 of the treatment is summarized in Table 4B (See FIG. 3).

CAL-51 = assay: Cellular antiproliferative response, Assay 2 (nuclear dye intensity); assay type: cell-based; details: Homo sapiens, 240 h; CAL-51, HR mutant BRCA2, CHEK1, Assay 2, 10-day incubation; read-out: Log10 (IC50) (converted)
Experimental: (§1) Compound A was tested in a cell line panel. Cell lines were grown in RPMI 1640, 10% FBS, 2 mM L-alanyl-L-glutamine, 1 mM Na pyruvate, or a special medium. Cells were seeded into 384-well plates and incubated in a humidified atmosphere of 5% CO2 at 37° C. The following day, Compound A was added by serial dilution in half-log steps from the highest test concentration of 30 μM and assayed over ten concentrations. A time zero untreated cell plate was also generated. At seven days post-seeding, the growth media were replaced, and the plates were re-dosed with the test compound. After a 10-day incubation period, cells were fixed and stained with a fluorescent nuclear dye. Automated fluorescence microscopy was carried out using a Molecular Devices ImageXpress Micro XL high-content imager, and images were collected with a 4× objective. 16-bit TIFF images were acquired and analyzed with MetaXpress 5.1.0.41 software.
(§2) Cell proliferation effects of Compound A was measured using the fluorescent intensity of the incorporated nuclear dye as a percent of the control (POC), where POC=(Ix/I0)×100. Ix=nuclear intensity at concentration x and I0=average nuclear intensity of the untreated vehicle wells. Cellular IC50 was calculated using nonlinear regression to a sigmoidal single-site dose response model. Curve fitting, calculations, and report generation was performed using a custom data reduction engine and MathIQ based software (AIM).

AU565 = assay: as above; assay type: cell-based; details: Homo sapiens, 240 h; AU565, HR mutant CHEK2, Assay 2, 10-day incubation; read-out: Log10 (IC50) (converted)
Experimental: as §1, §2

HCC1569 = assay: as above; assay type: cell-based; details: Homo sapiens, 240 h; HCC1569, HR mutant BRCA2, Assay 2, 10-day incubation; read-out: Log10 (IC50) (converted)
Experimental: as §1, §2

HCC1954 = assay: as above; assay type: cell-based; details: Homo sapiens, 240 h; HCC1954, HR mutant BRCA1, Assay 2, 10-day incubation; read-out: Log10 (IC50) (converted)
Experimental: as §1, §2

MDA-MB-436 = assay: as above; assay type: cell-based; details: Homo sapiens, 240 h; MDA-MB-436, HR mutant BRCA1, Assay 2, 10-day incubation; read-out: Log10 (IC50) (converted)
Experimental: as §1, §2

HCC1599 = assay: as above; assay type: cell-based; details: Homo sapiens, 240 h; HCC1599, HR mutant BRCA2, Assay 2, 10-day incubation; read-out: Log10 (IC50) (converted)
Experimental: as §1, §2

HCC1395 = assay: as above; assay type: cell-based; details: Homo sapiens, 240 h; HCC1395, HR mutant BRCA1, BRCA2, Assay 2, 10-day incubation; read-out: Log10 (IC50) (converted)
Experimental: as §1, §2

CAL-85-1 = assay: as above; assay type: cell-based; details: Homo sapiens, 240 h; CAL-85-1, HR mutant BRCA2, Assay 2, 10-day incubation; read-out: Log10 (IC50) (converted)
Experimental: as §1, §2

HCC202 = assay: as above; assay type: cell-based; details: 240 h; HCC202, HR mutant BRCA2, Assay 2, 10-day incubation; read-out: Log10 (IC50) (converted)
Experimental: as §1, §2

HCC1937 = assay: as above; assay type: cell-based; details: Homo sapiens, 240 h; HCC1937, HR mutant BRCA1, Assay 2, 10-day incubation; read-out: Log10 (IC50) (converted)
Experimental: as §1, §2

BT-474 = assay: as above; assay type: cell-based; details: Homo sapiens, 240 h; BT-474, HR mutant BRCA2, Assay 2, 10-day incubation; read-out: Log10 (IC50) (converted)
Experimental: as §1, §2

[1] = 30 mg/kg p.o. QD × 28, Day 28, vs vehicle

With CC(C)C(=O)N1CCN(c2cc(S(=O)(=O)NC3(C#N)CC3)cc3c2cnn3-c2nnc(C(F)F)s2)C[C@H]1C [Compound B] the “TGI (%) D28” value (HCC1428 tumors; [1]) was 81.7%, the “TGI (%) D28” value (HCC1428 tumors; 100 mg/kg p.o. QD × 28, Day 28, vs vehicle) was 89.0% and the “TGI (%) D28” value (HCC1428 tumors; 300 mg/kg p.o. QD × 28, Day 28, vs vehicle) was 94.6%. For the same molecule, the mean tumor volume (HCC1428 tumors; Compound B study, 30 mg/kg QD, Day 28) was 165 mm^3, the mean tumor volume (HCC1428 tumors; Compound B study, 100 mg/kg QD, Day 28) was 103 mm^3 and the mean tumor volume (HCC1428 tumors; Compound B study, 300 mg/kg QD, Day 28) was 50 mm^3.

Work on C[C@H]1CN(c2cc(S(=O)(=O)NC3(C)CC3)cc3c2cnn3-c2nnc(C(F)F)s2)C[C@H](C)N1 [Compound A, 1-(5-(difluoromethyl)-1,3,4-thiadiazol-2-yl)-4-((3S,5S)-3,5-dimethylpiperazin-1-yl)-N-(1-methylcyclopropyl)-1H-indazole-6-sulfonamide] yielded an IC50 (CAL-51) of 3530 nM, an IC50 (AU565) of 52.3 nM and an IC50 (HCC1569) of 80 nM. The IC50 (HCC1954) was 370 nM, the IC50 (MDA-MB-436) was 52.4 nM and the IC50 (HCC1599) was 1310 nM. The IC50 (HCC1395) was 30 nM, the IC50 (CAL-85-1) was 100 nM and the IC50 (HCC202) was 640 nM. For the same molecule, the IC50 (HCC1937) was 220 nM, the IC50 (BT-474) was 847 nM and the “TGI (%) D28 or 71” value (HCC1428 tumors; 3 mg/kg p.o. QD × 28, Day 28, vs vehicle) was 23%. For the same molecule, the “TGI (%) D28 or 71” value (HCC1428 tumors; [1]) was 54%, the “TGI (%) D28 or 71” value (HCC1428 tumors; 100 mg/kg p.o. QD × 72, Day 71, vs vehicle) was 103% and the mean tumor volume (HCC1428 tumors; Compound A study, 3 mg/kg QD, Day 28) was 836 mm^3. The mean tumor volume (HCC1428 tumors; Compound A study, 30 mg/kg QD, Day 28) was 570 mm^3 and the mean tumor volume (HCC1428 tumors; Compound A study, 100 mg/kg QD, Day 71) was 116 mm3.
